Measured values published in patent publication US12662476B2, “Herbicidal thiazole compounds” (SYNGENTA CROP PROTECTION AG, priority 2019, dated 2026).

How the values were obtained:
Type in all cases: in vivo
Setaria faberi (SETFA) [1] = assay: Post-emergence herbicidal glasshouse test; conditions: sprayed after 8 days cultivation, 250 g/ha, evaluated after 13 days, five-point scale
Experimental: (§1) Seeds of a variety of test species are sown in standard soil in pots Amaranthus retoflexus (AMARE), Echinochloa crus-galli (ECHCG), Setaria faberi (SETFA)). After cultivation for one day (pre-emergence) or after 8 days cultivation (post-emergence) under controlled conditions in a glasshouse (at 24/16° C., day/night; 14 hours light; 65% humidity), the plants are sprayed with an aqueous spray solution derived from the formulation of the technical active ingredient in acetone/water (50:50) solution containing 0.5% Tween™ 20 (polyoxyethylene sorbitan monolaurate, CAS RN 9005-64-5). Compounds are applied at 250 g/ha unless otherwise stated. The test plants are then grown in a glasshouse under controlled conditions in a glasshouse (at 24/16° C., day/night; 14 hours light; 65% humidity) and watered twice daily. After 13 days for pre- and post-emergence, the test is evaluated for the percentage damage caused to the plant. The biological activities are shown in the following table on a five-point scale (5=81-100%; 4=61-80%; 3=41-60%; 2=21-40%; 1=0-20%).

[2] = test system: Echinochloa crus-galli (ECHCG); assay: Post-emergence herbicidal glasshouse test; conditions: sprayed after 8 days cultivation, 250 g/ha, evaluated after 13 days, five-point scale
Experimental: as §1

[3] = test system: Amaranthus retoflexus (AMARE); assay: Post-emergence herbicidal glasshouse test; conditions: sprayed after 8 days cultivation, 250 g/ha, evaluated after 13 days, five-point scale
Experimental: as §1

Setaria faberi (SETFA) [4] = assay: Pre-emergence herbicidal glasshouse test; conditions: sprayed after one day cultivation, 250 g/ha, evaluated after 13 days, five-point scale
Experimental: as §1

[5] = test system: Echinochloa crus-galli (ECHCG); assay: Pre-emergence herbicidal glasshouse test; conditions: sprayed after one day cultivation, 250 g/ha, evaluated after 13 days, five-point scale
Experimental: as §1

[6] = test system: Amaranthus retoflexus (AMARE); assay: Pre-emergence herbicidal glasshouse test; conditions: sprayed after one day cultivation, 250 g/ha, evaluated after 13 days, five-point scale
Experimental: as §1

SMILES | percentage damage caused to the plant, SETFA (Setaria faberi (SETFA) [1]) | percentage damage caused to the plant, ECHCG [2] | percentage damage caused to the plant, AMARE [3] | percentage damage caused to the plant, SETFA (Setaria faberi (SETFA) [4]) | percentage damage caused to the plant, ECHCG [5] | percentage damage caused to the plant, AMARE [6]
FC(F)c1cc(-c2c(Br)cccc2Oc2nc(Cl)c(Cl)s2)on1 [Compound 1.028] | 4 (4=61-80%) | 4 (4=61-80%) | 4 (4=61-80%) | 4 (4=61-80%) | 4 (4=61-80%) | 2 (2=21-40%)
Fc1cccc(Oc2nc(Cl)c(Cl)s2)c1-c1cc(C(F)F)no1 [Compound 1.029] | 2 (2=21-40%) | 1 (1=0-20%) | 5 (5=81-100%) | 2 (2=21-40%) | 1 (1=0-20%) | 5 (5=81-100%)
FC(F)c1cc(-c2c(Br)cccc2Oc2nc(C(F)F)c(Cl)s2)on1 [Compound 1.030] | 1 (1=0-20%) | 1 (1=0-20%) | 1 (1=0-20%) | 1 (1=0-20%) | 1 (1=0-20%) | 1 (1=0-20%)
Fc1cccc(Sc2ncc(Cl)s2)c1-c1cc(C(F)F)no1 [Compound 1.031, 5-[2-(5-chlorothiazol-2-yl)sulfanyl-6-fluoro-phenyl]-3-(difluoromethyl)isoxazole] | 3 (3=41-60%) | 2 (2=21-40%) | 4 (4=61-80%) | 2 (2=21-40%) | 2 (2=21-40%) | 3 (3=41-60%)
FC(F)c1cc(-c2c(Cl)cccc2Oc2nc(Cl)c(Cl)s2)on1 [Compound 1.032] | 4 (4=61-80%) | 2 (2=21-40%) | 5 (5=81-100%) | 1 (1=0-20%) | 1 (1=0-20%) | 5 (5=81-100%)
Fc1cccc(Oc2nc(C(F)(F)F)cs2)c1-c1cc(C(F)F)no1 [Compound 1.033] | 4 (4=61-80%) | 4 (4=61-80%) | 4 (4=61-80%) | 5 (5=81-100%) | 4 (4=61-80%) | 5 (5=81-100%)
FC(F)c1cc(-c2c(Br)cccc2Oc2nc(C(F)(F)F)cs2)on1 [Compound 1.034] | 4 (4=61-80%) | 3 (3=41-60%) | 4 (4=61-80%) | 5 (5=81-100%) | 3 (3=41-60%) | 4 (4=61-80%)
Fc1cccc(Oc2nc(C(F)F)c(Cl)s2)c1-c1cc(C(F)F)no1 [Compound 1.035] | 1 (1=0-20%) | 1 (1=0-20%) | 2 (2=21-40%) | 1 (1=0-20%) | 1 (1=0-20%) | 1 (1=0-20%)
